Experiment [1] deals with Wnt signaling pathway. The experiment in a line: TOP-Flash Wnt luciferase reporter assay. It counts as cell-based. As to conditions: for IC50: TOP-Flash LNCaP-abl cells, siAPC 24 h then 24 h compound, read-out: IC50 for Wnt luciferase inhibition. The method, then:
The macrocycles were evaluated for their ability to inhibit the Wnt signaling pathway in cell culture. The macrocycles were administered at a concentration of 10 micromolar, and the activity was monitored with a luciferase reporter assay responsive to signaling through the Wnt pathway. […] The macrocycles were also observed to exert minimal cellular toxicity at the 10 micromolar concentration. […] Cells were incubated with 5 μM of peptoid macrocycles prior to co-IP.
(§1) Compound testing and identification of a hit compound—Using a TOP-Flash Wnt luciferase reporter, 12 oligomers identified from in silico modeling for inhibitory activity (FIG. 6A) were tested. At […] concentration, all compounds had some level of Wnt inhibitory activity in cell culture, with varying degrees of efficacy. Also employed was a 3×-Androgen Response Element (ARE) luciferase reporter to measure the effect on AR activity. […] FIG. 2B depicts the predicted structure and contacts of the β-catenin: 13 complex.

Experiment [2] has as its target AR signaling. The experiment in a line: 3x-Androgen Response Element (ARE) luciferase reporter assay. Format: cell-based. As to conditions: for IC50: 3xARE LNCaP-abl cells, 48 h compound, read-out: IC50 for inhibition of the AR luciferase reporter. The method, then: as §1
(Reporter assays use an easily measured gene product as a stand-in for the process of interest.)

Experiment [3] relates to Wnt signaling in zebrafish embryos. Kind of experiment: Zebrafish phenotypic assay of Wnt signaling (eye development). Format: in vivo. The source says: Rescue of eye development in Wnt-activated zebrafish embryos by the hit oligomer macrocycle—To evaluate the efficacy of 13 in vivo, a zebrafish model was utilized. The relevance of the model for our studies is that zebrafish embryos with Wnt activating mutations in the AXIN gene, a component of the β-catenin destruction complex, fail to develop eyes or a forebrain. The phenotype can be recapitulated by treatment with an inhibitor (termed BIO) for another β-catenin destruction complex member, GSK3, in embryos at 6 hours post-fertilization (hpf). It would then be anticipated that 13 inhibits the chemically over-activated Wnt signal, and potentially rescue eye development. To test this compound BIO was added to zebrafish embryos at 6 hpf with and without 13 as described in FIG. 10A.
Zebrafish Experiments The zebrafish phenotypic assay was conducted using wildtype zebrafish embryos seeded into a 96 well round bottom plate in 50 μl of blue zebrafish embryo media. At 50% epiboly, roughly 5.5 hours post fertilization, 50 ul of 30 μM cyclic peptoid compound was added. About 30 minutes later at shield stage, 50 μl 6 nM (3×) BIO was added. The embryos were then visualized for the presence of eyes and imaged at 30 hours post fertilization.

The target of experiment [4] is β-catenin:TCF4 interaction (Homo sapiens, UniProt P35222). To be noted: read-out: IC50 for inhibition of β-catenin binding to TCF4 N-terminal β-catenin binding domain; 5 nM His6-β-catenin.
Experiment [5] deals with LNCaP-abl and LNCaP-95 cells. The experiment in a line: RT-qPCR of endogenous Wnt and AR target genes. It counts as cell-based. To be noted: 10 μM, 24 hours. On the procedure: These cell lines were derived from androgen-sensitive LNCaP cells, and passaged in androgen-deprived media to mimic the development of castration resistance in patient tumors. mRNA from LNCaP-abl and LNCaP-95 cells treated with DMSO (vehicle) was isolated, 10 μM 13 and linear 13 for 24 hours to check the expression of endogenous Wnt and AR target genes (FIG. 8A). […] AR-V7 is particularly challenging to target as most AR antagonists target the ligand binding domain.
(§2) Cell Culture LNCaP-abl and LNCaP-95 cells were cultured in indicator free RPMI 1640 media (Life) supplemented with 10% charcoal stripped FBS, 1% penn/strep, and 1% L-Glutamine. HEK-293 Cells were cultured in DMEM media (Life) supplemented with 10% FBS and 1% penn/strep. Luciferase assays were conducted using stably transfected TOP-flash and 3×ARE LNCaP-abl cell lines. For the Wnt pathway, TOP-Flash LNCaP-abl cells were treated with siAPC for 24 hours followed by 24 hours treatment with compound. For the AR-pathway, 3×ARE LNCaP-abl cells were treated for 48 hours with compound, with the addition of R1881 for the final 8 hours. Both were measured using the ONE-Glo detection kit (Promega) and reported data is standardized to the cell-titer control values. Co-immunoprecipitation was carried out using HEK293 cells transfected with either myc-TCF (addgene #32738) or myc-TCF dominant negative (addgene #32739) followed by 48 hours of treatment with compound. Cells were lysed using trition lysis buffer and 1 mg total protein was incubated overnight at 4 C with 40 μl anti-cMyc magnetic beads (Thermo). The beads were washed 3× with lysis buffer then boiled in 2× sample loading dye. SDS-PAGE and western blotting were performed using anti-myc (CST 2276) and anti-β-catenin (CST 8480). RT-qPCR was performed using RNA isolated with the RNEasy kit (Qiagen) from LNCaP-abl and LNCaP-95 cells after 24 hour treatment with 10 μM compound. The Verso cDNA synthesis kit (Thermo) with 1 μg total RNA was used, and qPCR data was collected using Fast SYBR Green Master Mix on a QuantiStudio 6 Flex (Life Technologies). 2D proliferation assays were conducted using 384 well plates seeded with 2000 cells/well LNCaP-abl or LNCaP-95 cells. After 5 days of treatment the cell viability was measured with the CellTiter-Fluor Cell Viability Assay (Promega) and data is reported standardized to DMSO control.
In general terms: Real-time PCR tracks product formation cycle by cycle.

Experiment [6] concerns the target T1, β-catenin:TCF4 protein interaction (Homo sapiens, UniProt P35222).
T1 construct: endogenous in cells; host or cells: HEK293 (β-catenin endogenous; myc-TCF4 transfected from addgene #32738)
T1 sequence (P35222 2-781 limits assumed): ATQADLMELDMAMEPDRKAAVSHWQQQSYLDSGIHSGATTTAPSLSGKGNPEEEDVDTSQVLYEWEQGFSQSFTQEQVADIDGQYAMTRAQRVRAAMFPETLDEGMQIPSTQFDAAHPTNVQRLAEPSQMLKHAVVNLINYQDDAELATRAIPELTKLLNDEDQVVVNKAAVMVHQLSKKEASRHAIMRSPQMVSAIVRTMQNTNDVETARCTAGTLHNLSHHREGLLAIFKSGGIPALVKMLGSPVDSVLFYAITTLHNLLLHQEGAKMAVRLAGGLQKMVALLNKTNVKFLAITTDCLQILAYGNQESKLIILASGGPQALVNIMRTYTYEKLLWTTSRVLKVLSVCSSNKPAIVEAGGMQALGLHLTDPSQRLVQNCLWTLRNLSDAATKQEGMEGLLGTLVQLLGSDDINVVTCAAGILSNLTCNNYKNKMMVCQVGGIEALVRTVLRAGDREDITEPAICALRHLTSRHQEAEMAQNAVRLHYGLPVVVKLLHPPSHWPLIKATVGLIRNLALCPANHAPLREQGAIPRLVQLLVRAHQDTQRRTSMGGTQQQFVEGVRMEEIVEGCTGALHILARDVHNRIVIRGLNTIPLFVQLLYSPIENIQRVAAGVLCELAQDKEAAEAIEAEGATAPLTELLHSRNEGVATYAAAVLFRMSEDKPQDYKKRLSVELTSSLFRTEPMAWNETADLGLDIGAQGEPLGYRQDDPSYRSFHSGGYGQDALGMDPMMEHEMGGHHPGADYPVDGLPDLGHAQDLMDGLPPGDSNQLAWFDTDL
The experiment in a line: Co-immunoprecipitation of myc-TCF4 and endogenous β-catenin in HEK293 cells. It counts as cell-based. To be noted: 10 μM, 48 hour treatment. The method, then:
HEK293 cells were transiently transfected with a plasmid expressing full length, myc-tagged TCF4.
as §2, with “The beads were washed 3× with lysis buffer then boiled in 2× sample loading dye. SDS-PAGE and western blotting were performed using anti-myc (CST 2276) and anti-β-catenin (CST 8480). RT-qPCR was performed using RNA isolated with the RNEasy kit (Qiagen) from LNCaP-abl and LNCaP-95 cells after 24 hour treatment with 10 μM compound. The Verso cDNA synthesis kit (Thermo) with 1 μg total RNA was used, and qPCR data was collected using Fast SYBR Green Master Mix on a QuantiStudio 6 Flex (Life Technologies). 2D proliferation assays were conducted using 384 well plates seeded with 2000 cells/well LNCaP-abl or LNCaP-95 cells.” left out

Experiment [7] deals with T2, E-cadherin:β-catenin interaction (Homo sapiens, UniProt P35222).
T2 sequence (P35222 1-781): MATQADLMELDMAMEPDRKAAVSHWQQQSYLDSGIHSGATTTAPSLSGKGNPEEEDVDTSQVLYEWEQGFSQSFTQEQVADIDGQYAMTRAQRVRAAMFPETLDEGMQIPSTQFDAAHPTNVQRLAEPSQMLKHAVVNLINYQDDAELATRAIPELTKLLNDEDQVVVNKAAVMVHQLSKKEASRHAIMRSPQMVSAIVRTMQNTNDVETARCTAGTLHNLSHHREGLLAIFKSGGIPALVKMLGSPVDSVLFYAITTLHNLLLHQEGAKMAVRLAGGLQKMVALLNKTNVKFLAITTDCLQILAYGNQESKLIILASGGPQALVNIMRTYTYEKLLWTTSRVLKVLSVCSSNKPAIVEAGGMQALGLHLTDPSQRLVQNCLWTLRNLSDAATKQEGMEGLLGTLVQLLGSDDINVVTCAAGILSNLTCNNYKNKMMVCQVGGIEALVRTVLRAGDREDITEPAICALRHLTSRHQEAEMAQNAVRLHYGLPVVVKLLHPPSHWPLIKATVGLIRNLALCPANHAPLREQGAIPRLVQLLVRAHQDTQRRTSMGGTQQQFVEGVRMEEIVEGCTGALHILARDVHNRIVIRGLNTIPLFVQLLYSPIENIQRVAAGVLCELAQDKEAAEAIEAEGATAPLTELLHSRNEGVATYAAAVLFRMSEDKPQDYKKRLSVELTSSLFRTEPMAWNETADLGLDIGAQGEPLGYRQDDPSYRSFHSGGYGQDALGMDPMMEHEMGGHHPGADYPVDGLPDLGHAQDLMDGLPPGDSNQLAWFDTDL
Kind of experiment: Two-hybrid like assay, E-cadherin with β-catenin. It counts as cell-based.

Experiment [8] deals with LNCaP-abl spheroids. The experiment in a line: Spheroid 3D cell culture (PrestoBlue viability, spheroid area). It counts as cell-based. The method, then: The effects on spheroid formation and growth were evaluated following treatment with DMSO, 13, or linear 13 administered at the time of seeding at low cell density in a 384 well plate. In a separate experiment, to test the impact on pre-formed spheroids, cells were treated five days after initial seeding. Spheroids from both experiments were grown for 22 days, with compound refreshed on days 5, 9, 13, 16, and 20. […] PrestoBlue was used to measure cell viability on day 22 (FIG. 9B). […] FIG. 9C-F depicts spheroid area over time based on size measurements from the images taken throughout the experiment.
Spheroid 3D Cell Culture LNCaP-abl cells were seeded into 384 well ultra-low attachment plates (Corning), 1000 cells/well. Varying concentrations of compound were added either on the same day as seeding or on day 5. Media was changed every 3-4 days using a Biotek automated media exchanger. Images were taken using an ArraySca VTI (Thermo) on days 5, 9, 13, 16, 20, and 22. A final viability measurement was taken on day 22 using PrestoBlue reagent (Thermo).

For experiment [9], the target named is T3, β-catenin:TCF family interaction (Homo sapiens, UniProt P35222).
T3 sequence (P35222 1-781): T2 sequence (P35222 1-781)
Kind of experiment: Two-hybrid like assay of β-catenin:TCF family member interactions. It counts as cell-based.

[10] abbreviates: 3 additional independent experiments, each.
Setting [11] is: first experiment, eight fish, BIO added at 6 hpf with or without 13.

Numbered stars: 1 amine (or outer) side, 2 acyl side, 3 side chain; on linkers, the order of the positions; unused ones are H or OH. Square brackets hold non-standard residues; d marks the D form. Peptide text beside a SMILES is read from it. N(2-(2-PhOPh)Et)Gly = O=C(O)CNCCc1ccccc1Oc1ccccc1; Gly(N-3,5-(OMe)2-Ph) = COc1cc(NCC(=O)O)cc(OC)c1; X1 = COc1ccc([C@H](C)N(CC(=O)[*:2])[*:1])cc1; N((CH2)3OiPr)Gly = CC(C)OCCCNCC(=O)O

Take “NH2-D-Ala-N-mpp, N-dmp, N-ipp, N-Smpe, N-Smpe-OH [linear 13]”: the IC50 (in general, the concentration needed to halve the response being measured) turned out to be 3.27 µM in experiment [1] and 7.63 µM in [2].

`O=C1Nc2cc(Br)ccc2/C1=C1/Nc2ccccc2/C1=N\O` [BIO, reference compound]: the “Fish that developed eyes” value in experiment [3] (setting [10]) was 0/8; in experiment [3] (setting [11]), “one of the eight fish”.

On to `COc1ccc([C@H](C)N2CC(=O)N[C@H](C)C(=O)N(CCc3ccccc3Oc3ccccc3)CC(=O)N(c3cc(OC)cc(OC)c3)CC(=O)N(CCCOC(C)C)CC(=O)N([C@@H](C)c3ccc(OC)cc3)CC2=O)cc1` [Compound 13] (cyclo([dA][N(2-(2-PhOPh)Et)Gly][Gly(N-3,5-(OMe)2-Ph)][N((CH2)3OiPr)Gly][X1][X1])), for which, in [4], the IC50 was 5.44 µM. The “Fish that developed eyes” value in experiment [3] (setting [10]) is on record as 8/8. Moreover, the “Fish that developed eyes” value in experiment [3] (setting [11]) is “all the fish”. Also, in [5], the “AR mRNA” value is reported as “decreased”, the “Cyclin D1 mRNA” value was “decreased”, the “FKBP5 mRNA” value was “decreased” and the “PSA mRNA” value was “decreased”. Moreover, in [5], the “Transcription of AR splice variant AR-V7” value is “decreased”, the “Transcription of E-cadherin” value is “increased” and the “cMYC mRNA” value is reported as “decreased”. Besides, the “β-catenin:TCF interaction by co-immunoprecipitation, compared to DMSO” value in experiment [6] is given as “decreased”. Besides, the “Wnt inhibitory activity, TOP-Flash Wnt luciferase reporter” value in experiment [1] (10 µM concentration, cell culture) is “more effective”. For the same compound, the IC50 in experiment [1] turned out to be 0.105 µM. In [2], the “Inhibition of AR signaling, 3x-ARE luciferase reporter” value is “more effective” and the IC50 was 1.02 µM. For the same compound, the “Inhibition of E-cadherin interaction with β-catenin” value in experiment [7] is “not”. Besides, the “Spheroid growth / area over time” value in [8] (0.5 μM, added on day 0) is “slowed the growth”. The “Spheroid formation / area over time” value in experiment [8] (20 μM, 10 μM, 5 μM, 2 μM and 1 μM, added on day 0 with seeding) is reported as “prevented spheroid formation”. The “Growth of preformed spheroids / area over time” value in [8] (at or above 2 μM, treatment started at day 5) is “stalled the growth of preformed spheroids”. Besides, the “Spheroid growth / area over time” value in [8] (between 0.001 µM and 0.1 μM) is “little effect”. Moreover, the “Inhibition of TCF family interaction with β-catenin” value in experiment [9] is given as “inhibits”.

(Values after patent US12281180B2, “Peptoid-peptide macrocycles, pharmaceutical compositions and methods of using the same” (New York University, priority 2018, dated 2025).)
